Measurements reported in patent US11780840B2 (Incyte Corporation, priority 2020, dated 2023).

Columns and labels:
[1] = target: T1, pseudo-kinase domain (JH2, amino-acids 536-812 with 3 surface mutations W659A, W777A, F794H) of human V617F mutant JAK2 (Homo sapiens, UniProt O60674, F794H/V617F/W659A/W777A); assay: JAK2 LanthaScreen JH2-V617F Binding Assay; settings: JAK2 JH2-V617F (0.26 nM), 50 nM Fluorescent JAK2-JH2 Tracer, 1 hour at 25° C.; read-out: JH2 BIND V617F
T1 construct: pseudo-kinase domain (JH2, amino-acids 536-812 with 3 surface mutations W659A, W777A, F794H); His (C); Avi (biotinylated) (C); purchased BPS Bioscience 79498; host or cells: baculovirus expression system
T1 sequence (O60674 536-812 V617F/W659A/W777A/F794H): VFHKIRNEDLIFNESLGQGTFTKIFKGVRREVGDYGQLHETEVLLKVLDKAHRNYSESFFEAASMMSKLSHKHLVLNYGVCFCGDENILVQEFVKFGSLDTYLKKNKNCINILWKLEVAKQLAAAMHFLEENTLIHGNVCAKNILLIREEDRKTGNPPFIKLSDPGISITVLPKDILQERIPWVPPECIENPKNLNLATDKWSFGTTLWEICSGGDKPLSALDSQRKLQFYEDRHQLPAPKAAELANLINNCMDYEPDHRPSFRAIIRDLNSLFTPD
Experimental: Example C. JAK2 LanthaScreen JH2-V617F Binding Assay
(§1) JAK2 JH2-V617F binding assay utilizes pseudo-kinase domain (JH2, amino-acids 536-812 with 3 surface mutations W659A, W777A, F794H) of human V617F mutant JAK2 expressed as C-terminal His-Avi-tagged, biotinylated protein in a baculovirus expression system (BPS Bioscience, Catalog #79498). The assay was conducted in black 384-well polystyrene plates in a final reaction volume of 20 μL. JAK2 JH2-V617F (0.26 nM) was incubated with compounds (100 nL serially diluted in DMSO) in the presence of 50 nM Fluorescent JAK2-JH2 Tracer (MedChem Express Catalog #HY-102055) and 0.25 nM Streptavidin-Tb cryptate (Cisbio Part #610SATLB) in assay buffer (50 mM Tris, pH=7.5, 10 mM MgCl2, 0.01% Brij-35, 0.1% BSA, 1 mM EGTA, 5% Glycerol and 5 mM DTT). Non-specific binding was accessed in the presence of 2 mM ATP. After incubation for 1 hour at 25° C., LanthaScreen signals were read on a PHERAstar FS plate reader (BMG LABTECH). Data was analyzed with IDBS XLfit and GraphPad Prism 5.0 software using a four parameter dose response curve to determine IC50 for each compound.

[2] = target: T2, pseudo-kinase domain (JH2, amino-acids 536-812 with 3 surface mutations W659A, W777A, F794H) of human Wild Type JAK2 (Homo sapiens, UniProt O60674, F794H/W659A/W777A); assay: JAK2 LanthaScreen JH2-WT Binding Assay; settings: JAK2 JH2-WT (0.145 nM), 50 nM Fluorescent JAK2-JH2 Tracer, 1 hour at 25° C.; read-out: JH2 BIND WT
T2 construct: pseudo-kinase domain (JH2, amino-acids 536-812 with 3 surface mutations W659A, W777A, F794H); His (C); Avi (biotinylated) (C); purchased BPS Bioscience 79463; host or cells: baculovirus expression system
T2 sequence (O60674 536-812 W659A/W777A/F794H): as the sequence (O60674 536-812 V617F/W659A/W777A/F794H) above, with F82V counted along it
Experimental: Example B. JAK2 LanthaScreen JH2-WT Binding Assay
as §1, with “JH2-WT” for “JH2-V617F”, “Wild Type” for “V617F mutant”, “#79463).” for “#79498).”, “JH2-WT (0.145” for “JH2-V617F (0.26”

[3] = target: T3, catalytic domain (JH1, amino acids 826-1132) of human JAK2 (Homo sapiens, UniProt O60674); assay: JAK2 LanthaScreen JH1 Binding Assay; settings: JAK2 JH1 (1.5 nM), 50 nM fluorescent JAK2-JH1 tracer, 2 hours at 25° C.; read-out: JH1 BIND
T3 construct: catalytic domain (JH1, amino acids 826-1132) of human JAK2; FLAG (N); purchased Carna Biosciences 08-445-20N; host or cells: baculovirus expression system
T3 sequence (O60674 826-1132): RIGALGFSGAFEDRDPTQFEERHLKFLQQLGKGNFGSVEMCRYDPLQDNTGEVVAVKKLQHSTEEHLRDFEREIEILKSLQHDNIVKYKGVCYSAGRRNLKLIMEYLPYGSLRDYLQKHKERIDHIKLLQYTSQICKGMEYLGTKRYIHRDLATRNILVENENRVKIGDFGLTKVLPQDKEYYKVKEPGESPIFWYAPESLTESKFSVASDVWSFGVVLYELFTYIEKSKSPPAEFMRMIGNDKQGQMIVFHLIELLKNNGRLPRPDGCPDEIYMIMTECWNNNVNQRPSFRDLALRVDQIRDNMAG
Experimental: Example A. JAK2 LanthaScreen JH1 Binding Assay
JAK2 JH1 binding assay utilizes catalytic domain (JH1, amino acids 826-1132) of human JAK2 expressed as N-terminal FLAG-tagged, biotinylated protein in a baculovirus expression system (Carna Biosciences, Product #08-445-20N). The assay was conducted in black 384-well polystyrene plates in a final reaction volume of 20 μL. JAK2 JH1 (1.5 nM) was incubated with compounds (100 nL serially diluted in DMSO) in the presence of 50 nM fluorescent JAK2-JH1 tracer and 0.5 nM Streptavidin-Tb cryptate (Cisbio Part #610SATLB) in assay buffer (50 mM Tris, pH=7.5, 10 mM MgCl2, 0.01% Brij-35, 0.1% BSA, 1 mM EGTA, 5% Glycerol and 5 mM DTT). Non-specific binding was accessed in the presence of 2 mM ATP. After incubation for 2 hours at 25° C., LanthaScreen signals were read on a PHERAstar FS plate reader (BMG LABTECH). Data was analyzed with IDBS XLfit and GraphPad Prism 5.0 software using a four parameter dose response curve to determine IC50 for each compound.

SMILES | IC50 [1] | IC50 [2] | IC50 [3]
Cn1c(=O)n(C2CCCC2)c2c3c(-c4ccc(C5(C#N)CC5)cc4)c(-c4cnn(CS(C)(=O)=O)c4)[nH]c3ncc21 [Example 31, 1-(4-(1-Cyclopentyl-3-methyl-7-(1-((methylsulfonyl)methyl)-1H-pyrazol-4-yl)-2-oxo-1,2,3,6-tetrahydroimidazo [4,5-d]pyrrolo[2,3-b]pyridin-8-yl)phenyl)cyclo-propane-1-carbonitrile] | ≤ 10 nM | ≤ 10 nM | 100 to 500 nM
COC1CC=C(c2c(-c3ccc(CN4CCC(S(C)(=O)=O)CC4)cc3)[nH]c3ncc4c(c23)n(C2CCCC2)c(=O)n4C)CC1 (stereo not drawn) [Example 32, 1-Cyclopentyl-8-(4-methoxycyclohex-1-en-1-yl)-3-methyl-7-(4-((4-(methylsulfonyl)piperidin-1-yl)methyl)phenyl)-3,6-dihydroimidazo[4,5-d]pyrrolo[2,3-b] pyridin-2(1H)-one] | ≤ 10 nM | ≤ 10 nM | 10 to 100 nM
Cn1c(=O)n(C2CCCC2)c2c3c(C4=CCOCC4)c(-c4ccc(CN5CCC(S(C)(=O)=O)CC5)cc4)[nH]c3ncc21 [Example 33, 1-Cyclopentyl-8-(3,6-dihydro-2H-pyran-4-yl)-3-methyl-7-(4-((4-(methylsulfonyl)piperidin-1-yl)methyl)phenyl)-3,6-dihydroimidazo[4,5-d]pyrrolo[2,3-b] pyridin-2(1H)-one] | ≤ 10 nM | ≤ 10 nM | 10 to 100 nM
Cn1c(=O)n(C)c2c3c(C4CC4)c(-c4ccc(CN5CCC(S(C)(=O)=O)CC5)cc4)[nH]c3ncc21 [Example 34] | > 1000 nM | 500 to 1000 nM | 500 to 1000 nM
COc1ccc(-c2c(-c3ccc(CN4CCC(S(C)(=O)=O)CC4)cc3)[nH]c3ncc4c(c23)n(C)c(=O)n4C)cn1 [Example 35, 8-(6-Methoxypyridin-3-yl)-1,3-dimethyl-7-(4-((4-(methylsulfonyl)piperidin-1-yl)methyl)phenyl)-3,6-dihydroimidazo[4,5-d]pyrrolo[2,3-b]pyridin-2(1H)-one] | 100 to 500 nM | 100 to 500 nM | > 1000 nM
CC(C)n1c(=O)n(C)c2cnc3[nH]c(-c4cnn(Cc5ccncc5)c4)c(-c4ccc(C#N)cc4)c3c21 [Example 36, 4-(1-Isopropyl-3-methyl-2-oxo-7-(1-(pyridin-4-ylmethyl)-1H-pyrazol-4-yl)-1,2,3,6-tetrahydroimidazo [4,5-d]pyrrolo[2,3-b]pyridin-8-yl)benzonitrile] | ≤ 10 nM | ≤ 10 nM | 100 to 500 nM
CC(=O)N1CCN(c2ccc(-c3[nH]c4ncc5c(c4c3-c3ccc(C#N)cc3)n(C(C)C)c(=O)n5C)cc2)CC1 [Example 37, 4-(7-(4-(4-Acetylpiperazin-1-yl)phenyl)-1-isopropyl-3-methyl-2-oxo-1,2,3,6-tetrahydroimidazo [4,5-d]pyrrolo[2,3-b]pyridin-8-yl) benzonitrile] | ≤ 10 nM | ≤ 10 nM | > 1000 nM
CC(C)n1c(=O)n(C)c2cnc3[nH]c(C4=CCOCC4)c(-c4ccc(C#N)cc4)c3c21 [Example 38, 4-(7-(3,6-Dihydro-2H-pyran-4-yl)-1-isopropyl-3-methyl-2-oxo-1,2,3,6-tetrahydroimidazo [4,5-d]pyrrolo[2,3-b]pyridin-8-yl)benzonitrile] | 10 to 100 nM | 10 to 100 nM | > 1000 nM
CC(C)n1c(=O)n(C)c2cnc3[nH]c(C4CC4)c(-c4ccc(C#N)cc4)c3c21 [Example 39] | 10 to 100 nM | 10 to 100 nM | > 1000 nM
Cn1c(=O)n(C)c2c3c(-c4ccccc4)c(-c4cccnc4)[nH]c3ncc21 [Example 40, 1,3-Dimethyl-8-phenyl-7-(pyridin-3-yl)-3,6-dihydroimidazo[4,5-d]pyrrolo[2,3-b]pyridin-2(1H)-one] | > 1000 nM | 500 to 1000 nM | > 1000 nM
Cn1c(=O)n(C)c2c3c(-c4ccccc4)c(C4CCNCC4)[nH]c3ncc21 [Example 41, 1,3-Dimethyl-8-phenyl-7-(piperidin-4-yl)-3,6-dihydroimidazo[4,5-d]pyrrolo[2,3-b]pyridin-2(1H)-one] | > 1000 nM | > 1000 nM | > 1000 nM
